{
  "source": "patent US20050163855A1",
  "about": "“Method of preparing low-crystallinity oltipraz or amorphous oltipraz” (CJ CORPORATION, priority 2004, published 2005)",
  "key": {"[1]": {"conditions": "cited from earlier work"}, "[2]": {"assay": "physchem"}},
  "data": [
    {"compound": "Cc1c(-c2cnccn2)ssc1=S", "note": "[oltipraz]", "values": [
      {"measurement": "water solubility", "setting": "[1]", "value": "≤ 0.001", "unit": "mg/mL"},
      {"measurement": "solubility", "setting": "[2]; Cremophor EL, organic solvent or mixture", "value": 9.44, "unit": "mg/mL"},
      {"measurement": "solubility", "setting": "[2]; Cremophor RH40, organic solvent or mixture", "value": 10.7, "unit": "mg/mL"},
      {"measurement": "solubility", "setting": "[2]; Dimethylisosorbide, organic solvent or mixture", "value": 17.2, "unit": "mg/mL"},
      {"measurement": "solubility", "setting": "[2]; Labrasol, organic solvent or mixture", "value": 12.6, "unit": "mg/mL"},
      {"measurement": "solubility", "setting": "[2]; N,N-dimethylformamide, organic solvent or mixture", "value": 31.3, "unit": "mg/mL"},
      {"measurement": "solubility", "setting": "[2]; N-methypyrrolidone, organic solvent or mixture", "value": 13.7, "unit": "mg/mL"},
      {"measurement": "solubility", "setting": "[2]; Polymethylene glycol 200, organic solvent or mixture", "value": 7.99, "unit": "mg/mL"},
      {"measurement": "solubility", "setting": "[2]; Polymethylene glycol 400, organic solvent or mixture", "value": 10.5, "unit": "mg/mL"},
      {"measurement": "solubility", "setting": "[2]; Polypropylene glycol, organic solvent or mixture", "value": 0.57, "unit": "mg/mL"},
      {"measurement": "solubility", "setting": "[2]; Tetraglycol, organic solvent or mixture", "value": 13.6, "unit": "mg/mL"},
      {"measurement": "solubility", "setting": "[2]; Transcutol, organic solvent or mixture", "value": 10.3, "unit": "mg/mL"},
      {"measurement": "solubility", "setting": "[2]; acetone, organic solvent or mixture", "value": 4.05, "unit": "mg/mL"},
      {"measurement": "solubility", "setting": "[2]; acetonitrile, organic solvent or mixture", "value": 2.73, "unit": "mg/mL"},
      {"measurement": "solubility", "setting": "[2]; chloroform, organic solvent or mixture", "value": 28.6, "unit": "mg/mL"},
      {"measurement": "solubility", "setting": "[2]; dimethyl sulfoxide, organic solvent or mixture", "value": 29.1, "unit": "mg/mL"},
      {"measurement": "solubility", "setting": "[2]; ethanol, organic solvent or mixture", "value": 0.67, "unit": "mg/mL"},
      {"measurement": "solubility", "setting": "[2]; methanol, organic solvent or mixture", "value": 0.5, "unit": "mg/mL"},
      {"measurement": "solubility", "setting": "[2]; methylene chloride, organic solvent or mixture", "value": 7.6, "unit": "mg/mL"}
    ]}
  ]
}
